# Data taken from patent US9409983B2, “Methods and compositions involving PBEF inhibitors for lung inflammation conditions and diseases” (The Board of Trustess of the University of Illinois, priority 2009, dated 2016).
# “Also recorded” adds a separate entry of the source.
# Tested on: C57BL/6 mice
# Experiment: Intratracheal rhPBEF instillation in spontaneously breathing mice (BAL, tissue albumin, cytokines, histology)
# Type: in vivo, mouse
# Experimental: The first VILI model was designed to produce limited lung injury (VILIa, tidal volume 30 ml/kg), thus allowing assessment of potential synergy with rhPBEF challenge. Male C57BL/6J B6 mice were anesthetized with ketamine/acepromazine, intubated and administered rhPBEF (20 μg/mouse) via an intratracheal (IT) route ˜30 min before ventilator placement (room air, tidal volume 30 ml/kg, 65 breaths/minute, 0 cm H2O PEEP) for 4 hr as previously described (Nonas et al., 2007; Moitra et al., 2007). Groups included a spontaneous breathing group (SB), a spontaneous breathing group challenged with rhPBEF (SB-rhPBEF), a high tidal ventilation group (VILIa), and a high tidal ventilation group with rhPBEF challenge (VILIa-rhPBEF) (n=4-6 all groups).
# BAL fluid recovered as we previously described was used for multiple assays including total BAL protein, and BAL cell differentials (Peng et al., 2004). Tissue albumin content was assessed as previously described (Nonas et al., 2007). Cytokine levels in BAL fluid (IL-1β, IL-6, KC, MIP2, TNF-α) were analyzed by multiplex assays (Bio-Rad, Hercules, Calif., USA). BAL PBEF levels were assayed by a C-terminal ELISA (Phoenix Pharmaceuticals Inc. Belmont, Calif.) and analyzed using the SoftmaxPRO software (Molecular Devices Corp). (See Supplemental Methods).
# We utilized two experimental models of ventilator-induce lung injury in these experiments. Our first approach (VILIa) utilized a VILI protocol with a tidal volume of 30 ml/kg designed to produce limited lung injury in order to allow assessment of potential synergism between delivered PBEF and mechanical ventilation-induced lung injury. Male C57BL/6J mice (8-12 wk old, 24.7±2.0 g) were weighed, anesthetized with ketamine/acepromazine, intubated using a 20 gauge catheter (Medex, Inc, Carlsbad, Calif.) and administered recombinant PBEF ([…] of water) via an intratracheal (IT) route ˜30 min before being placed on mechanical ventilation as we have previously described (Peng et al., 2004). Mice were then connected to Harvard Apparatus ventilator (Boston, Mass.) at room air, tidal volume of 30 ml/kg, 65 breaths/minute, and positive expiratory pressure (PEEP) 0 cm H2O for 4 hr. Groups of mice were randomly allocated to either the spontaneous breathing group (SB) (n=4), the spontaneous breathing challenged with IT rhPBEF group (SB-rhPBEF) (n=6), the high tidal ventilation group (VILIa) (n=6), or high tidal ventilation with rhPBEF group (VILIa-rhPBEF) (n=6). Normal saline (0.2 cc) was given via intraperitoneal injection at the beginning and 2 hours later to all ventilated mice and peak inspiratory pressure was monitored continuously. Temperature was maintained with heat blanket to all mice during experiment.
# Mice underwent bronchioalveolar lavage (BAL) of both lungs with Hank's balanced salt solution (1 mL/mouse), and the recovered BAL fluid was used for assays as we have previously described (Peng et al., 2004). Total protein was measured using the Bio-Rad DC Protein Assay (Bio-Rad Laboratories, Hercules, Calif.) (Peng et al., 2004). Protein results were expressed as mg/ml to allow for comparison to other studies. Lavage samples were centrifuged at 500×g on a refrigerated micro centrifuge for 20 min. The supernatant was decanted and aliquot for protein assays. The BAL cells were resuspended in Hank's balanced salt solution and counted using a hemacytometer using standard techniques.
# Re-suspended BAL cells from lung lavage were centrifuged using a Shandon Cytospin-2 at 600 RPM for 15 min, fixed by air-drying, and stained with Diff-Quik dye for differential counts (Peng et al., 2004). Stained cell slides were evaluated and differentially counted for each individual animal (lymphocyte, neutrophil or a macrophage).
# BAL fluid for cytokine measurements was stored at −80° C. until analysis. […]
# [1] = spontaneously breathing mice, rhPBEF
substance,measurement,setting,value
"rhPBEF: Recombinant human soluble PBEF/visfatin, a 52 kDa protein containing 465 amino acid residues, purchased from PeproTech",BAL IL-1β,SB-rhPBEF,55 ± 22 pg/mL
same,BAL TNF-α,SB-rhPBEF,262 ± 94 pg/mL
same,histologic assessment of lung tissue (hematoxylin and eosin),"SB-rhPBEF, 20 μg/mouse in 30 μl saline intratracheal",mild inflammation; also recorded: macrophage & neutrophil infiltration and edematous alveolar areas
same,BAL IL-6,[1],319 ± 67 pg/mL
same,BAL KC,[1],1388 ± 169 pg/mL
same,BAL MIP-2,[1],29026 ± 762 pg/mL
